Reference: paper PMC5218480 (PLoS ONE, 2017)

Tested on: MV-4-11 cells
Assay: Gene expression microarray analysis (Affymetrix PrimeView) and GSEA
Format: cell-based, human
Design: RFU PODN (11730768_x_at) / Fold change /veh PODN (11730768_x_at) / RFU LINC00158 (11744669_a_at) / Fold change /veh LINC00158 (11744669_a_at) / RFU DUSP10 (11751237_a_at) / Fold change /veh DUSP10 (11751237_a_at) / RFU ID3 (11757404_x_at) / Fold change /veh ID3 (11757404_x_at) / RFU PLEKHG5 (11737974_s_at) / Fold change /veh PLEKHG5 (11737974_s_at) / RFU LRRC4B (11730491_at) / Fold change /veh LRRC4B (11730491_at) / RFU GIMAP4 (11747438_a_at) / Fold change /veh GIMAP4 (11747438_a_at) / RFU KRT8 (11758183_x_at) / Fold change /veh KRT8 (11758183_x_at) / RFU CNN1 (11734310_a_at) / Fold change /veh CNN1 (11734310_a_at) / RFU VPS37D (11726825_at) / Fold change /veh VPS37D (11726825_at) / RFU C10orf10 (11716522_x_at) / Fold change /veh C10orf10 (11716522_x_at) / RFU KIR2DL2 /// KIR2DL4 /// KIR2DL5A /// KIR2DL5B /// KIR2DS1 /// KIR2DS2 /// KIR2DS3 /// KIR2DS4 /// KIR3DL3 /// KIR3DL3 /// KIR3DS1 (11738374_at) / Fold change /veh KIR2DL2 /// KIR2DL4 /// KIR2DL5A /// KIR2DL5B /// KIR2DS1 /// KIR2DS2 /// KIR2DS3 /// KIR2DS4 /// KIR3DL3 /// KIR3DL3 /// KIR3DS1 (11738374_at) / RFU C1QL1 (11718748_at) / Fold change /veh C1QL1 (11718748_at) / RFU TMPRSS4 (11747572_a_at) / Fold change /veh TMPRSS4 (11747572_a_at) / RFU HAMP (11756126_x_at) / Fold change /veh HAMP (11756126_x_at) / RFU RNFT2 (11725882_a_at) / Fold change /veh RNFT2 (11725882_a_at) / RFU NR4A2 (11747474_a_at) / Fold change /veh NR4A2 (11747474_a_at) / RFU ABCC12 (11746883_a_at) / Fold change /veh ABCC12 (11746883_a_at) / RFU TMEM136 (11760407_x_at) / Fold change /veh TMEM136 (11760407_x_at) / RFU CLDN22 /// WWC2 (11732394_at) / Fold change /veh CLDN22 /// WWC2 (11732394_at) / RFU HLA-DPB1 (11760878_x_at) / Fold change /veh HLA-DPB1 (11760878_x_at) / RFU SPINT1 (11716480_a_at) / Fold change /veh SPINT1 (11716480_a_at) / RFU GAP43 (11754022_s_at) / Fold change /veh GAP43 (11754022_s_at) / RFU A4GNT (11735810_at) / Fold change /veh A4GNT (11735810_at) / RFU PRB3 (11715151_x_at) / Fold change /veh PRB3 (11715151_x_at) / RFU TUBB4B (11761932_at) / Fold change /veh TUBB4B (11761932_at) / RFU CAPN14 (11732068_a_at) / Fold change /veh CAPN14 (11732068_a_at) / RFU TMCC2 (11721928_a_at) / Fold change /veh TMCC2 (11721928_a_at) / RFU IRGQ (11745062_a_at) / Fold change /veh IRGQ (11745062_a_at) / RFU FAM174B (11720279_a_at) / Fold change /veh FAM174B (11720279_a_at) / RFU TMPRSS4 (11748680_a_at) / Fold change /veh TMPRSS4 (11748680_a_at) / RFU FAM212B (11763350_a_at) / Fold change /veh FAM212B (11763350_a_at) / RFU PLEKHG5 (11743358_a_at) / Fold change /veh PLEKHG5 (11743358_a_at) / RFU ZSCAN30 (11745921_a_at) / Fold change /veh ZSCAN30 (11745921_a_at) / RFU CMKLR1 (11741424_a_at) / Fold change /veh CMKLR1 (11741424_a_at) / RFU LOC101060620 /// MAPK8IP1 (11723275_at) / Fold change /veh LOC101060620 /// MAPK8IP1 (11723275_at) / RFU SPTSSB (11747773_x_at) / Fold change /veh SPTSSB (11747773_x_at) / RFU PRSS12 (11739890_at) / Fold change /veh PRSS12 (11739890_at) / RFU BIN1 (11741810_x_at) / Fold change /veh BIN1 (11741810_x_at) / RFU WNT11 (11732464_a_at) / Fold change /veh WNT11 (11732464_a_at) / RFU C10orf10 (11716521_a_at) / Fold change /veh C10orf10 (11716521_a_at) / RFU C5orf56 (11738089_at) / Fold change /veh C5orf56 (11738089_at) / RFU CYB561 (11721691_x_at) / Fold change /veh CYB561 (11721691_x_at) / RFU ANKRD19P (11752326_a_at) / Fold change /veh ANKRD19P (11752326_a_at) / RFU OR2T12 /// OR2T33 /// OR2T8 (11738714_s_at) / Fold change /veh OR2T12 /// OR2T33 /// OR2T8 (11738714_s_at) / RFU VCAN (11748164_a_at) / Fold change /veh VCAN (11748164_a_at) / RFU JSRP1 (11732532_at) / Fold change /veh JSRP1 (11732532_at) / RFU KRTAP10-11 (11738290_x_at) / Fold change /veh KRTAP10-11 (11738290_x_at) / RFU MYO3A (11730013_a_at) / Fold change /veh MYO3A (11730013_a_at) / RFU EBF3 (11725865_a_at) / Fold change /veh EBF3 (11725865_a_at) / RFU CAMK2N1 (11719241_x_at) / Fold change /veh CAMK2N1 (11719241_x_at) / RFU C5orf56 (11738088_a_at) / Fold change /veh C5orf56 (11738088_a_at) / RFU OLFML3 (11715873_a_at) / Fold change /veh OLFML3 (11715873_a_at) / RFU LOC100653217 /// NTM (11731650_a_at) / Fold change /veh LOC100653217 /// NTM (11731650_a_at) / RFU MAPK11 (11762145_a_at) / Fold change /veh MAPK11 (11762145_a_at) / RFU FIZ1 (11724087_x_at) / Fold change /veh FIZ1 (11724087_x_at) / RFU OASL (11726364_x_at) / Fold change /veh OASL (11726364_x_at) / RFU SOX15 (11748057_x_at) / Fold change /veh SOX15 (11748057_x_at) / RFU CD79A (11719716_a_at) / Fold change /veh CD79A (11719716_a_at) / RFU HIST1H1D (11736915_at) / Fold change /veh HIST1H1D (11736915_at) / RFU CASKIN2 (11723855_a_at) / Fold change /veh CASKIN2 (11723855_a_at) / RFU LOC730098 (11760151_x_at) / Fold change /veh LOC730098 (11760151_x_at) / RFU OR4N2 (11742367_at) / Fold change /veh OR4N2 (11742367_at) / RFU PRRT2 (11749266_a_at) / Fold change /veh PRRT2 (11749266_a_at) / RFU SNX32 (11753110_a_at) / Fold change /veh SNX32 (11753110_a_at) / RFU CDHR5 (11726645_a_at) / Fold change /veh CDHR5 (11726645_a_at) / RFU RCAN1 (11760418_a_at) / Fold change /veh RCAN1 (11760418_a_at) / RFU FAM167A (11723789_a_at) / Fold change /veh FAM167A (11723789_a_at) / RFU FAM26E (11764081_at) / Fold change /veh FAM26E (11764081_at) / RFU ISYNA1 (11749810_s_at) / Fold change /veh ISYNA1 (11749810_s_at) / RFU ACY1 (11761880_at) / Fold change /veh ACY1 (11761880_at) / RFU 11764098_at / Fold change /veh 11764098_at / RFU SAMD14 (11745864_x_at) / Fold change /veh SAMD14 (11745864_x_at) / RFU NPB (11741838_a_at) / Fold change /veh NPB (11741838_a_at) / RFU TMPRSS6 (11731388_a_at) / Fold change /veh TMPRSS6 (11731388_a_at) / RFU KRTAP10-2 (11738614_at) / Fold change /veh KRTAP10-2 (11738614_at) / RFU ARHGAP8 /// PRR5-ARHGAP8 (11727945_x_at) / Fold change /veh ARHGAP8 /// PRR5-ARHGAP8 (11727945_x_at) / RFU KRTAP5-7 /// NADSYN1 (11734609_at) / Fold change /veh KRTAP5-7 /// NADSYN1 (11734609_at) / RFU RASL12 (11751679_a_at) / Fold change /veh RASL12 (11751679_a_at) / RFU CDKN2B (11736163_a_at) / Fold change /veh CDKN2B (11736163_a_at) / RFU PRF1 (11729649_at) / Fold change /veh PRF1 (11729649_at) / RFU, ZNF638 /// ZNF638-IT1 / Fold change vs veh, ZNF638 /// ZNF638-IT1 / RFU, PANK3 / Fold change vs veh, PANK3 / RFU, SH3YL1 / Fold change vs veh, SH3YL1 / RFU, ZEB2 / Fold change vs veh, ZEB2 / RFU, NRIP1 / Fold change vs veh, NRIP1 / RFU, PTTG1IP / Fold change vs veh, PTTG1IP / RFU, CAPN2 / Fold change vs veh, CAPN2 / RFU, MED14 / Fold change vs veh, MED14 / RFU, SNORA58 / Fold change vs veh, SNORA58 / RFU, C1orf63 / Fold change vs veh, C1orf63 / RFU, LRRFIP1 / Fold change vs veh, LRRFIP1 / RFU, NDUFAF7 / Fold change vs veh, NDUFAF7 / RFU, SLC12A2 / Fold change vs veh, SLC12A2 / RFU, IBTK / Fold change vs veh, IBTK / RFU, ESF1 / Fold change vs veh, ESF1 / Fold change vs veh, TMEM50B / RFU, TAOK1 / Fold change vs veh, TAOK1 / RFU, ACBD3 / Fold change vs veh, ACBD3 / RFU, TMA16 / Fold change vs veh, TMA16 / RFU, RWDD3 / Fold change vs veh, RWDD3 / RFU, BCAT1 / Fold change vs veh, BCAT1 / RFU, EDEM3 / Fold change vs veh, EDEM3 / RFU, TMEM33 / Fold change vs veh, TMEM33 / RFU, WDR75 / Fold change vs veh, WDR75 / RFU, AHCTF1 / Fold change vs veh, AHCTF1 / RFU, TFRC / Fold change vs veh, TFRC / RFU, ZDHHC17 / Fold change vs veh, ZDHHC17 / RFU, NOM1 / Fold change vs veh, NOM1 / RFU, ARL8B / Fold change vs veh, ARL8B / RFU, ZBTB11 / Fold change vs veh, ZBTB11 / RFU, TAMM41 / Fold change vs veh, TAMM41 / RFU, KIAA1704 /// LOC100996395 / Fold change vs veh, KIAA1704 /// LOC100996395 / RFU, ING1 / Fold change vs veh, ING1 / RFU, TRMT61B / Fold change vs veh, TRMT61B / RFU, FUBP3 / Fold change vs veh, FUBP3 / RFU, TP53 / Fold change vs veh, TP53 / RFU, TNKS2 / Fold change vs veh, TNKS2 / RFU, ZFP14 / Fold change vs veh, ZFP14 / RFU, ACTR2 / Fold change vs veh, ACTR2 / RFU, PPP3R1 / Fold change vs veh, PPP3R1 / RFU, PIK3R1 / Fold change vs veh, PIK3R1 / RFU, HNRNPA1 / Fold change vs veh, HNRNPA1 / RFU, RNF170 / Fold change vs veh, RNF170 / RFU, ZNF28 / Fold change vs veh, ZNF28 / RFU, RNGTT / Fold change vs veh, RNGTT / RFU, OGT / Fold change vs veh, OGT / RFU, BRD1 / Fold change vs veh, BRD1 / RFU, MARS / Fold change vs veh, MARS / RFU, ZNF655 / Fold change vs veh, ZNF655 / RFU, FAHD1 / Fold change vs veh, FAHD1 / RFU, BDP1 / Fold change vs veh, BDP1 / RFU, LRRCC1 / Fold change vs veh, LRRCC1 / RFU, ARID1A / Fold change vs veh, ARID1A / RFU, ZNF146 / Fold change vs veh, ZNF146 / RFU, ZNF330 / Fold change vs veh, ZNF330 / RFU, GPN3 / Fold change vs veh, GPN3 / RFU, C9orf123 / Fold change vs veh, C9orf123 / RFU, N4BP2L2 / Fold change vs veh, N4BP2L2 / RFU, ARFIP1 / Fold change vs veh, ARFIP1 / RFU, FAM179B / Fold change vs veh, FAM179B / RFU, BCL10 / Fold change vs veh, BCL10 / RFU, UHRF1BP1L / Fold change vs veh, UHRF1BP1L / RFU, BET1 / Fold change vs veh, BET1 / RFU, CNOT2 / Fold change vs veh, CNOT2 / RFU, ZNF268 / Fold change vs veh, ZNF268 / Fold change vs veh, ZNF507 / RFU, DGCR2 / Fold change vs veh, DGCR2 / RFU, WDSUB1 / Fold change vs veh, WDSUB1 / Fold change vs veh, HSP90B1 /// MIR3652 / RFU, ADSS / Fold change vs veh, ADSS / RFU, GK / Fold change vs veh, GK / RFU, ZNF148 / Fold change vs veh, ZNF148 / RFU, TAF9 / Fold change vs veh, TAF9 / RFU, SLC1A5 / Fold change vs veh, SLC1A5 / RFU, SLMO2 / Fold change vs veh, SLMO2 / RFU, ABCC4 / Fold change vs veh, ABCC4 / RFU, LOC101060439 /// RAP1B / Fold change vs veh, LOC101060439 /// RAP1B / RFU, RFX7 / Fold change vs veh, RFX7 / RFU, GTPBP10 / Fold change vs veh, GTPBP10 / RFU, CNEP1R1 / Fold change vs veh, CNEP1R1 / RFU, BIVM-ERCC5 /// ERCC5 / Fold change vs veh, BIVM-ERCC5 /// ERCC5 / RFU, ILF3 / Fold change vs veh, ILF3 / RFU 11762660_at / Fold change /veh 11762660_at / RFU VCAN (11757783_s_at) / Fold change /veh VCAN (11757783_s_at) / RFU DDX43 (11728927_at) / Fold change /veh DDX43 (11728927_at) / RFU KRT8 (11758188_x_at) / Fold change /veh KRT8 (11758188_x_at) / RFU NKD1 (11759106_at) / Fold change /veh NKD1 (11759106_at) / RFU SRD5A1 (11742802_a_at) / Fold change /veh SRD5A1 (11742802_a_at) / RFU TPSAB1 /// TPSB2 (11721975_s_at) / Fold change /veh TPSAB1 /// TPSB2 (11721975_s_at) / RFU GSTM3 (11746129_a_at) / Fold change /veh GSTM3 (11746129_a_at) / RFU IL23R (11737362_x_at) / Fold change /veh IL23R (11737362_x_at) / RFU TMEM51 (11727254_a_at) / Fold change /veh TMEM51 (11727254_a_at) / RFU PIWIL2 (11732686_x_at) / Fold change /veh PIWIL2 (11732686_x_at) / RFU ORM1 (11744905_x_at) / Fold change /veh ORM1 (11744905_x_at) / RFU CCDC152 (11743942_at) / Fold change /veh CCDC152 (11743942_at) / RFU ECM1 (11717891_a_at) / Fold change /veh ECM1 (11717891_a_at) / RFU IL23R (11748794_a_at) / Fold change /veh IL23R (11748794_a_at) / RFU TNFAIP8L3 (11732012_x_at) / Fold change /veh TNFAIP8L3 (11732012_x_at) / RFU MBOAT4 (11741988_at) / Fold change /veh MBOAT4 (11741988_at) / RFU 11764193_at / Fold change /veh 11764193_at / RFU TMEM53 (11763286_at) / Fold change /veh TMEM53 (11763286_at) / RFU MAGEB2 (11727129_at) / Fold change /veh MAGEB2 (11727129_at) / RFU TMEM200A (11744735_a_at) / Fold change /veh TMEM200A (11744735_a_at) / RFU CCDC152 (11751479_a_at) / Fold change /veh CCDC152 (11751479_a_at) / RFU FAM211A (11726209_a_at) / Fold change /veh FAM211A (11726209_a_at) / RFU RGS16 (11746705_a_at) / Fold change /veh RGS16 (11746705_a_at) / RFU VCAN (11755009_s_at) / Fold change /veh VCAN (11755009_s_at) / RFU RHOB (11743442_s_at) / Fold change /veh RHOB (11743442_s_at) / RFU RGS16 (11720943_a_at) / Fold change /veh RGS16 (11720943_a_at) / RFU RGS16 (11720944_at) / Fold change /veh RGS16 (11720944_at) / RFU, VPS4B / Fold change vs veh, VPS4B / RFU, CREB1 / Fold change vs veh, CREB1 / RFU, DNAJC13 / Fold change vs veh, DNAJC13 / RFU, GNAQ / Fold change vs veh, GNAQ / RFU, CDK5R1 / Fold change vs veh, CDK5R1 / RFU, ZRANB3 / Fold change vs veh, ZRANB3 / RFU, CUL4A / Fold change vs veh, CUL4A / RFU, CCNY / Fold change vs veh, CCNY / RFU, UFL1 / Fold change vs veh, UFL1 / RFU, COG3 / Fold change vs veh, COG3 / RFU, DIAPH2 / Fold change vs veh, DIAPH2 / RFU, SKA2 / Fold change vs veh, SKA2 / RFU, AFF3 / Fold change vs veh, AFF3 / RFU, LMF1 / Fold change vs veh, LMF1 / RFU, IPO11 / Fold change vs veh, IPO11 / RFU, DFFB / Fold change vs veh, DFFB / RFU, FOXP1 / Fold change vs veh, FOXP1 / RFU, CARD8 / Fold change vs veh, CARD8 / RFU, STRN3 / Fold change vs veh, STRN3 / RFU, ADK / Fold change vs veh, ADK / RFU, RASSF2 / Fold change vs veh, RASSF2 / RFU, WIPF1 / Fold change vs veh, WIPF1 / RFU, LARP1B / Fold change vs veh, LARP1B / RFU, RASA1 / Fold change vs veh, RASA1 / RFU, RB1 / Fold change vs veh, RB1 / RFU, PPFIA1 / Fold change vs veh, PPFIA1 / RFU, MAT2A / Fold change vs veh, MAT2A / RFU, CCT5 / Fold change vs veh, CCT5 / RFU, WDR92 / Fold change vs veh, WDR92 / RFU, CUX1 / Fold change vs veh, CUX1 / RFU, TTC7A / Fold change vs veh, TTC7A / RFU, TMEM135 / Fold change vs veh, TMEM135 / RFU, DEPTOR / Fold change vs veh, DEPTOR / RFU, CPM / Fold change vs veh, CPM / RFU, DNAJB6 / Fold change vs veh, DNAJB6 / RFU, CACNA2D3 / Fold change vs veh, CACNA2D3 / RFU, DTX4 / Fold change vs veh, DTX4 / RFU, TFCP2 / Fold change vs veh, TFCP2 / RFU, GMCL1 /// GMCL1P1 / Fold change vs veh, GMCL1 /// GMCL1P1 / RFU, AEBP2 / Fold change vs veh, AEBP2 / RFU, SNHG1 /// SNORD22 /// SNORD25 /// SNORD26 /// SNORD27 /// SNORD28 /// SNORD29 /// SNORD31 / Fold change vs veh, SNHG1 /// SNORD22 /// SNORD25 /// SNORD26 /// SNORD27 /// SNORD28 /// SNORD29 /// SNORD31 / Fold change (Aza/veh), C12orf56 (ProbeSet 11735607_a_at) / Fold change (ACY-1035/veh), C12orf56 (ProbeSet 11735607_a_at) / Fold change (Aza/veh), FGFR1OP (ProbeSet 11751329_s_at) / Fold change (ACY-1035/veh), FGFR1OP (ProbeSet 11751329_s_at) / Fold change (Aza/veh), VPS36 (ProbeSet 11739960_a_at) / Fold change (ACY-1035/veh), VPS36 (ProbeSet 11739960_a_at) / RFU SYPL1 (11715823_x_at) / Fold change /veh SYPL1 (11715823_x_at) / RFU IGFBP7 (11715501_s_at) / Fold change /veh IGFBP7 (11715501_s_at) / RFU REEP3 (11722064_at) / Fold change /veh REEP3 (11722064_at) / RFU IGLL1 (11728026_x_at) / Fold change /veh IGLL1 (11728026_x_at): dose or concentration left out as unconfirmed
Settings: MV-4-11 cells, 48 hours

Nc1ccc(-c2cccs2)cc1NC(=O)c1ccc2c(c1)cc(C1CC1)n2CCN1CCOCC1 [ACY-1035]
Fold change /veh TMPRSS4 (11748680_a_at): 1.05
